Test system: restriction enzyme PstI
Assay: PstI cleavage reaction on a horizontal plate surface (DNA fragment III)
Assay type: biochemical
Details: horizontal plates, 0.6 M trehalose vs none
Procedure: Biotin-labeled DNA fragment III (Seq. ID No. 6, Scheme 4) was cleaved at the restriction enzyme PstI site on a horizontal streptavidin coated plate surface and the 104 by DNA fragment released was examined. To the DNA fragment III (500 ng) was admixed an equal volume of 2× binding buffer. The mixture was added to the wells of a plate that had been washed with 1× binding buffer and stirred and adsorbed while being gently vibrated for 15 minutes at room temperature. The supernatant was removed, washed three times with 1× binding buffer, and washed once with 1× PstI buffer. Two types of reaction solution (1× PstI buffer, 1× BSA restriction enzyme 40 units) were prepared: a trehalose (+) system to which D(+)-trehalose was added to a final concentration of 0.6 M, and a trehalose (−) system to which no trehalose was added. Each of the reaction solutions was added to wells that had been washed, and then reacted for three hours at 37° C. Cleavage was conducted with restriction enzyme. The supernatant containing the DNA fragments that had been released was recovered, reacted with proteinase K, treated with phenol chloroform, and precipitated from ethanol. The precipitate of DNA fragments obtained was dissolved in 1× TE (pH 7.5) and analyzed with Bioanalyzer DNA 1000 assay (Agilent Technologies).

## OC[C@H]1O[C@H](O[C@H]2O[C@H](CO)[C@@H](O)[C@H](O)[C@H]2O)[C@H](O)[C@@H](O)[C@@H]1O [trehalose, D(+)-trehalose]
  yield of released DNA fragment: higher yield
